# Measurements reported in US12083185B2, “Small polymeric carriers for delivery of agents” (University of Pittsburgh—Of the Commonwealth System of …, priority 2018, dated 2024).
# Assays:
# CDA = CDA expression in PANC02 cells by western blot; format: cell-based, murine; details: vs control group
# From the text: As described above, CDA is overexpressed in pancreatic cancer, which mediates the metabolism of cytidine analogue drugs, such as gemcitabine of GEM, leading to the resistance to treatment with these drugs. Thus, reducing the CDA expression provides a new therapeutic window for pancreatic cancer. We examined the CDA expression in PANC02 cells treated with various formulations by western blot.
# PANC02 cells = experiment: MTT cytotoxicity assay in PANC02 cells; format: cell-based, murine; details: 96 h
# Experimental: MTT assay. The combinational effect of PTX and GEM as well as the cytotoxicity of blank and drug-loaded micelles were investigated by MTT assay using murine pancreatic carcinoma cell lines PANC02 and H7 cells. Cells were seeded into a 96-well plate at a density of 5000 cells/well and incubated in 100 μL of Dulbecco's Modified Eagle medium (DMEM) containing 10% FBS for 24 h. Cells were treated with various concentrations of free PTX, GEM or micelles solution for 96 h. Then, 20 μL of MTT solution (5 mg/mL) were added to each well and the cells were incubated for another 4 h. After removing the medium, 100 μL of DMSO were added into each well to dissolve MTT formazan crystals. The optical density was measured using a microplate reader and the cell viability was calculated with untreated cells as a control.
smiles,measurement,setting,value
"Nc1ccn([C@@H]2O[C@H](CO)[C@@H](O)C2(F)F)c(=O)n1 [free GEM, gemcitabine]",CDA expression,CDA,not altered
same,"Cytotoxicity (cell killing effect, in words)",PANC02 cells,concentration-dependent cell killing effect
